Experimental data from patent US20250205178A1, “METHODS AND COMPOSITIONS FOR INHIBITING VIRAL […]” (ARIZONA BOARD OF REGENTS ON BEHALF OF THE UNIVERSITY OF …, priority 2022, published 2025).
Entries after “also recorded” stand apart in the source; their conditions may differ. Read-outs that look alike come from different tables or passages of the source.

How the values were obtained:
DENV3 NS5 MTase [1] = target: T1, DENV3 NS5 MTase (Dengue virus type 3, UniProt Q6YMS4); assay: FL-NAH FP displacement assay, DENV3 NS5; type: binding
T1 sequence (Q6YMS4 2492-2753): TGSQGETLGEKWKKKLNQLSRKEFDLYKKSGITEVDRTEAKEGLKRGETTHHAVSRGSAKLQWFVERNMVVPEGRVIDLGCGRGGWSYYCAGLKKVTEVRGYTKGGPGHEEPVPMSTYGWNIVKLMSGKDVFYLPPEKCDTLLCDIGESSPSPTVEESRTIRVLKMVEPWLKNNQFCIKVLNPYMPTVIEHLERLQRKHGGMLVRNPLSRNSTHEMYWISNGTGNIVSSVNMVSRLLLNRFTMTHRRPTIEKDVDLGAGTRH

WNV MTase [2] = target: T2, WNV MTase (West Nile virus, UniProt Q9Q6P4); type: binding
T2 sequence (Q9Q6P4 2529-2794 limits assumed): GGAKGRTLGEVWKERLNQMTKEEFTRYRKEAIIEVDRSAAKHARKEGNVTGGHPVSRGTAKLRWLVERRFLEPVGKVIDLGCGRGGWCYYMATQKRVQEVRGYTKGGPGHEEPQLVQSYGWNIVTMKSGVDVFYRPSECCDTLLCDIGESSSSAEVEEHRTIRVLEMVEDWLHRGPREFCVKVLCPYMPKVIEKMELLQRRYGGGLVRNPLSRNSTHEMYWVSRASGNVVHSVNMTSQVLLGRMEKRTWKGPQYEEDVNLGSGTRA

SARS-CoV-2 WA strain = assay: Checkerboard compound combination assay (plaque) in Vero-E6 cells; type: cell-based
Procedure: The 2D compound-compound interactions were determined by checkerboard titration in a 96-well plate. Vero-E6 cells were seeded one day before combination test at 3×10^4 cells/each well. The first compound (A) was serially diluted along the x axis (columns 3 to 8); and the second compound (B) was serially diluted along the y axis (from row A to F) in the 96-well plate. The last two columns (columns 9 and 10) contained compound B-alone controls and the last two rows (row G and H) contained compound A-alone controls. After the cells grew into monolayer, the medium was discard, followed by addition of 50 μl compound mixture. Then 50 μl SARS-CoV-2 WA strain was added at MOI of 0.01.
The plate was incubated at 37° C., 5% CO2 for 1 hour. Then 100 μl overlay medium (DMEM+2% FBS+1% Methylcellulose) was added and the plate was further incubated at 37° C., 5% CO2. After 3 days, cells were fixed with 10% neutral formalin for 30 minutes, wash with water for more than 6 times and then stained with 50 μl Crystal Violet (0.5% in methanol/water) for 4 minutes. The staining solution was removed by aspiration and the plate was rinsed with water, and dried thoroughly. Plaques were counted and numbers were recorded to calculate the percentage of inhibition. SynergyFinder was used to analyze the synergistic effect of the two compounds (https://synergyfinder.fimm.fi/synergy/20230202071113839465/). Each combination testing experiment has three replicates.

ZIKV N7 MTase = ZIKV N7 MTase (Zika virus, UniProt A0A024B7W1); type: biochemical
Sequence of ZIKV N7 MTase (A0A024B7W1 2521-2785 limits assumed): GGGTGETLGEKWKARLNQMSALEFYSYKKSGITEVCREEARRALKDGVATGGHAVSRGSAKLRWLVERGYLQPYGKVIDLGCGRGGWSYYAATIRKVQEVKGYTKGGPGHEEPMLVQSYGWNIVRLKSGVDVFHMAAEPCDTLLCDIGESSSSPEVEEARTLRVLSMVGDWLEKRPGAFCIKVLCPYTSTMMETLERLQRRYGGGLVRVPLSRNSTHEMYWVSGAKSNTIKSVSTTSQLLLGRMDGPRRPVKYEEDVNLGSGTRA

DENV3 NS5 MTase [3] = target: T1, DENV3 NS5 MTase; details: MST
[4] = system: human lung carcinoma A549 cells; assay: WST-8 cytotoxicity assay in A549 cells; type: cell-based
Procedure: As previously mentioned, cytotoxicity to the human lung carcinoma A549 cells was assessed using a WST-8 cell proliferation assay kit (Dojindo Molecular Technologies, Inc.).
To further characterize these candidate inhibitors, we investigated the cytotoxicity of NSC 111552 and 288387 to human A549 lung carcinoma cells, using a WST-8 cell viability kit, as we described previously.

[5] = system: SARS-CoV-2 WT strain (Washington strain); assay: Immunofluorescence assay, SARS-CoV-2 WT Washington strain; type: cell-based; details: Vero E6, WT Washington strain 0.01 MOI, 24 h
DENV3 NS5 N7 MTase = DENV3 NS5 N7 MTase (Dengue virus type 3, UniProt Q6YMS4); assay: HTRF MTase functional assay, DENV3; type: biochemical
Sequence of DENV3 NS5 N7 MTase (Q6YMS4 2492-2753): as the sequence (Q6YMS4 2492-2753) above

SARS-CoV-2 NSP14 MTase [6] = target: T3, SARS-CoV-2 NSP14 MTase (Severe acute respiratory syndrome coronavirus 2, UniProt P0DTD1); type: binding; details: for IC50: 50 nM FL-NAH, NSP14 MTase, read-out: IC50-disp, inhibition of FL-NAH binding
DENV2 replicon = details: read-out: EC50-DENV2 Replic; DENV2 replicon cell line
YFV MTase [7] = target: T4, YFV MTase (Yellow fever virus, UniProt P03314); details: read-out: IC50-disp
T4 sequence (P03314 2507-2771 limits assumed): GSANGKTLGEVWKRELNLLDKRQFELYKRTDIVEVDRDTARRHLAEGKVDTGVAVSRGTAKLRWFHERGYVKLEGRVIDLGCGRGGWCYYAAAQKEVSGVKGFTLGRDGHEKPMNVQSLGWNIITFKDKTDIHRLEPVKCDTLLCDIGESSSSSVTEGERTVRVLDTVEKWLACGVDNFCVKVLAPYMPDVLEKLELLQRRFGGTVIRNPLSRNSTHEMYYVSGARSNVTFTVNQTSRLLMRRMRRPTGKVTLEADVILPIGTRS

SARS-CoV-2 NSP14 MTase [8] = target: T3, SARS-CoV-2 NSP14 MTase; details: read-out: IC50-MS, NSP14 MTase activity
Human RNA MTase (hRNMT) = Human RNA MTase (hRNMT) (Homo sapiens, UniProt O43148); details: read-out: IC50-disp
Sequence of Human RNA MTase (hRNMT) (O43148 whole entry): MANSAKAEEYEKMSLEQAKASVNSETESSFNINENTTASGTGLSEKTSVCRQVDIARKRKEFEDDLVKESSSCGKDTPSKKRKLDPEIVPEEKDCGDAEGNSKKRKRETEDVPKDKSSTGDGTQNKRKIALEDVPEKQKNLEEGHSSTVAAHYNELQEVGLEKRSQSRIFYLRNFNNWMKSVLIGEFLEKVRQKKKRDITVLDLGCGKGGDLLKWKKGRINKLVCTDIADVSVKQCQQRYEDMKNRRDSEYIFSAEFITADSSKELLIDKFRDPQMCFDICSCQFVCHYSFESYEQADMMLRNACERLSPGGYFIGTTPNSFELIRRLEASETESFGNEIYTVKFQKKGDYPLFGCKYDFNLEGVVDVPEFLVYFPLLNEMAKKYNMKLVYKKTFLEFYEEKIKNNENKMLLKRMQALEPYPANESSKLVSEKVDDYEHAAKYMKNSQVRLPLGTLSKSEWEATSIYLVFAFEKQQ

WNV N7 MTase = WNV N7 MTase (West Nile virus, UniProt Q9Q6P4); type: biochemical
Sequence of WNV N7 MTase (Q9Q6P4 2529-2794 limits assumed): as the sequence (Q9Q6P4 2529-2794 limits assumed) above

SARS-CoV-2 NSP14 = SARS-CoV-2 NSP14 (Severe acute respiratory syndrome coronavirus 2, UniProt P0DTD1); details: read-out: NSP14 KD; MST, NSP14 40 nM
ZIKV NS5 MTase = ZIKV NS5 MTase (Zika virus, UniProt A0A024B7W1); type: binding
Sequence of ZIKV NS5 MTase (A0A024B7W1 2521-2785 limits assumed): as the sequence (A0A024B7W1 2521-2785 limits assumed) above

SARS-CoV-2 NSP14 MTase [9] = target: T3, SARS-CoV-2 NSP14 MTase; details: read-out: IC50-TLC, NSP14 MTase activity
DENV2 = assay: Antiviral immunofluorescence assay (IFA), DENV2; type: cell-based
DENV3 MTase [10] = target: T5, DENV3 MTase (Dengue virus type 3, UniProt Q6YMS4); assay: TLC MTase activity assay, DENV3; type: biochemical
T5 sequence (Q6YMS4 2492-2753): as the sequence (Q6YMS4 2492-2753) above

[11] = system: SARS-CoV-2 Omicron strain (BA.1.1); assay: Immunofluorescence assay, SARS-CoV-2 Omicron strain; type: cell-based
YFV N7 MTase = YFV N7 MTase (Yellow fever virus, UniProt P03314); details: read-out: IC50-HTRF
Sequence of YFV N7 MTase (P03314 2507-2771 limits assumed): as the sequence (P03314 2507-2771 limits assumed) above

SARS-CoV-2 = details: read-out: Antiviral EC50; Vero cells, plaques at 72 h post-infection
[12] = target: SARS-CoV-2 NSP14 N7-MTase (Severe acute respiratory syndrome coronavirus 2, UniProt P0DTD1); details: read-out: IC50-HTRF, NSP14 MTase activity; GpppA dinucleotide substrate
ZIKV = assay: Antiviral immunofluorescence assay (IFA), ZIKV; type: cell-based
SARS-CoV-2 NSP16 MTase = SARS-CoV-2 NSP16 MTase (Severe acute respiratory syndrome coronavirus 2, UniProt P0DTD1); assay: FL-NAH FP displacement assay, NSP16; type: binding; details: SAH 25 μM, 31.25 μM or 50 μM; NSP16 0.5 μM; p<0.0001
DENV3 MTase [13] = target: T5, DENV3 MTase; assay: FL-NAH FP binding assay, DENV3 MTase
YFV MTase [14] = target: T4, YFV MTase; type: binding; details: read-out: KD of FL-NAH
NSP14-NSP10 complex = NSP14-NSP10 complex (Severe acute respiratory syndrome coronavirus 2, UniProt P0DTD1); assay: FL-NAH FP binding assay, NSP14-NSP10 complex; design: species or system SARS-CoV-2; details: 50 nM FL-NAH, read-out: binding affinity of FL-NAH
Procedure: FP was calculated by measuring the parallel and perpendicular fluorescence with excitation and emission wavelengths of 485 nm and 528 nm, respectively. N=3
Using purified proteins, we investigated whether binding of FL-NAH to the NSP14 MTase could be monitored by FP. […] In addition, we investigated if FL-NAH is also bound to the NSP14/NSP10 complex. […] The results confirmed that NSP10 was not required for the NSP14 MTase function. Since NSP10 had only minimal effects on the NSP14 MTase activity, all the following experiments were performed using the NSP14 MTase alone.

ZIKV MTase = ZIKV MTase (Zika virus, UniProt A0A024B7W1); type: binding; details: read-out: KD of FL-NAH
Sequence of ZIKV MTase (A0A024B7W1 2521-2785 limits assumed): as the sequence (A0A024B7W1 2521-2785 limits assumed) above

WNV MTase [15] = target: T2, WNV MTase; type: binding; details: read-out: KD of FL-NAH

Q: What does the source list for `CC(=O)c1cc(O)c2ccccc2c1O` [NSC 111552]?
A: IC50 (DENV3 NS5 MTase [1]; DENV3, DTT (1 mM)): 1.6 µM; IC50 (DENV3 NS5 MTase [1]; DENV3, No DTT): 1.1 µM; IC50 (WNV MTase [2]): 5.7 µM; maximal ZIP-score (SARS-CoV-2 WA strain; NSC111552 in combination with nirmatrelvir): 21; maximal ZIP-score (SARS-CoV-2 WA strain; NSC111552 in combination with remdesivir): 24; IC50 (ZIKV N7 MTase): 12.9 µM; Kd (DENV3 NS5 MTase [3]): 4.6 µM; CC50 [4]: ~187 µM; viral titer in IFA [5]: dose-dependently reduced the viral titer; IC50 (DENV3 NS5 N7 MTase): 3.9 µM; IC50 (SARS-CoV-2 NSP14 MTase [6]): 5.1 µM; EC50 (DENV2 replicon): 5 µM; IC50 (YFV MTase [7]): 46 µM; IC50 (SARS-CoV-2 NSP14 MTase [8]): 1.5 µM; IC50 (Human RNA MTase (hRNMT)): 63.3 µM; IC50 (WNV N7 MTase): 5.2 µM; Kd (SARS-CoV-2 NSP14): 2.1 µM; IC50 (ZIKV NS5 MTase): 7.3 µM; IC50 (SARS-CoV-2 NSP14 MTase [9]): 7 µM; EC50 (DENV2): 0.32 µM; IC50 (DENV3 MTase [10]): 1.1 µM; viral titer in IFA [11]: dose-dependently reduced the viral titer; IC50 (YFV N7 MTase): 26.7 µM; EC50 (SARS-CoV-2): 8.5 µM; IC50 [12]: 2.2 µM; EC50 (ZIKV): 0.9 µM

Q: Which results are given for `COCCn1c2nc(=O)n(-c3ccccc3)c(=O)c-2nc2ccccc21` [NSC 288387]?
A: IC50 (DENV3 NS5 MTase [1]; DENV3, DTT (1 mM)): 3.9 µM; IC50 (DENV3 NS5 MTase [1]; DENV3, No DTT): 1.3 µM; effect of DTT (1 mM) on potency in inhibiting FL-NAH binding (DENV3 NS5 MTase [1]; with vs without DTT): reducing its potency by about threefold; IC50 (WNV MTase [2]): 13 µM; IC50 (ZIKV N7 MTase): 6.8 µM; Kd (DENV3 NS5 MTase [3]): 3.2 µM; CC50 [4]: 57 µM; viral titer in IFA [5]: dose-dependently reduced the viral titer; IC50 (DENV3 NS5 N7 MTase): 6 µM; IC50 (SARS-CoV-2 NSP14 MTase [6]): 2.7 µM; EC50 (DENV2 replicon): 11.4 µM; IC50 (YFV MTase [7]): 10 µM; IC50 (SARS-CoV-2 NSP14 MTase [8]): 4.3 µM; IC50 (Human RNA MTase (hRNMT)): 35.5 µM; IC50 (WNV N7 MTase): 12.2 µM; Kd (SARS-CoV-2 NSP14): 1.5 µM; IC50 (ZIKV NS5 MTase): 4.9 µM; IC50 (SARS-CoV-2 NSP14 MTase [9]): 2.5 µM; EC50 (DENV2): 0.53 µM; IC50 (DENV3 MTase [10]): 1.6 µM; viral titer in IFA [11]: dose-dependently reduced the viral titer; IC50 (YFV N7 MTase): 11.2 µM; EC50 (SARS-CoV-2): 5.7 µM; IC50 [12]: 2.2 µM; EC50 (ZIKV): 0.69 µM

Q: Which results are given for `C[S+](CC[C@H](N)C(=O)O)C[C@H]1O[C@@H](n2cnc3c(N)ncnc32)[C@H](O)[C@@H]1O` (stereo partly shown) [SAM, S-adenosylmethionine]?
A: inhibition of FL-NAH binding (FP) (ZIKV NS5 MTase): quenched; inhibition of FL-NAH binding (FP) (SARS-CoV-2 NSP16 MTase): quenched

Q: Which results are given for `CCC(CC)COC(=O)[C@H](C)N[P@](=O)(OC[C@H]1O[C@@](C#N)(c2ccc3c(N)ncnn23)[C@H](O)[C@@H]1O)Oc1ccccc1` [remdesivir]?
A: EC50 (SARS-CoV-2 WA strain; Severe acute respiratory syndrome coronavirus 2, Vero C1008, remdesivir alone, read-out: EC50): 0.04 µM; EC50 (SARS-CoV-2 WA strain; Severe acute respiratory syndrome coronavirus 2, Vero C1008, remdesivir with NSC111552 ([…]), read-out: EC50): 0.017 µM; EC50 decrease (SARS-CoV-2 WA strain; remdesivir with NSC111552 ([…])): about 2.4 fold

Q: With `Nc1ncnc2c1ncn2[C@@H]1O[C@H](CSCC[C@H](N)C(=O)O)[C@@H](O)[C@H]1O` [SAH, S-adenosyl-L-homocysteine] as the compound, how does the “inhibition of FL-NAH binding (FP)” value (SARS-CoV-2 NSP14 MTase [6]; SAH 25 μM, 31.25 μM or 50 μM, NSP14 0.5 μM, p<0.0001) read?
A: The value was “inhibited”.

Q: What about the “inhibition of FL-NAH binding (FP)” value (ZIKV NS5 MTase) of the same compound?
A: Its value is “inhibited; also recorded: quenched”.

Q: And the “inhibition of FL-NAH binding (FP)” value (SARS-CoV-2 NSP16 MTase)?
A: The value was “inhibited; also recorded: quenched”.

Q: For `CC(C)(C)[C@H](NC(=O)C(F)(F)F)C(=O)N1C[C@H]2[C@@H]([C@H]1C(=O)N[C@H](C#N)C[C@@H]1CCNC1=O)C2(C)C` [nirmatrelvir], which EC50 (SARS-CoV-2 WA strain; Severe acute respiratory syndrome coronavirus 2, Vero C1008, nirmatrelvir alone, read-out: EC50) is on record?
A: Its EC50 is 0.056 µM.

Q: And the EC50 (SARS-CoV-2 WA strain; Severe acute respiratory syndrome coronavirus 2, Vero C1008, nirmatrelvir in the presence of NSC111552)?
A: Its EC50 is about 0.031 µM.

Q: What about the EC50 shift (SARS-CoV-2 WA strain; nirmatrelvir, in the presence of NSC111552) of the same compound?
A: The EC50 shift was about 1.8 fold.

Q: `Nc1ncnc2c1ncn2[C@@H]1O[C@H](CN(CC[C@H](N)C(=O)O)Cc2cn(CCNC(=O)c3ccc4c(c3)C(=O)OC43c4ccc(O)cc4Oc4cc(O)ccc43)nn2)[C@@H](O)[C@H]1O` [FL-NAH, fluorescein N-adenosylhomocysteine] was tested. Which Kd (DENV3 MTase [13]) did it give?
A: Its Kd is 0.61 µM.

Q: What about the Kd (YFV MTase [14]) of the same compound?
A: The Kd was 3 µM.

Q: And the Kd (NSP14-NSP10 complex)?
A: The Kd was 0.81 µM.

Q: What about the Kd (ZIKV MTase) of the same compound?
A: Its Kd is 3.5 µM.

Q: And the Kd (WNV MTase [15])?
A: The Kd was 0.28 µM.
